Reference: patent US12110276B2 (Genentech, Inc., priority 2021, dated 2024)
Read-outs that look alike come from different tables or passages of the source.

What was measured:
TEAD3 = TEAD3 (Homo sapiens (Human), UniProt Q99594); test: TR-FRET lipid pocket probe competition assay (Lipid HTRF), TEAD3; format: binding
hNav1.5 sodium channels = hNav1.5 sodium channels (Homo sapiens (Human), UniProt Q14524); test: Cloned hNav1.5 sodium channels expressed in CHO cells, QPatch HT automated patch clamp; format: cell-based
Procedure: Example 183 A: Effects of Test Article on Cloned hNav1.5 Sodium Channels Expressed in Mammalian Cells
Chinese hamster ovary (CHO) cells expressing cloned hNav1.5 sodium channels (hNav1.5, encoded by the human SCNSA gene) are responsible for INa sodium channel current. From a 10 mM stock solution, test article was diluted to make a 1 mM, 0.1 mM, and 0.01 mM sub stock, which were stored frozen. All chemicals used in solution preparation were purchased from Sigma-Aldrich (St. Louis, MO) and were of ACS reagent grade purity or higher. Stock solutions of the test articles and the positive control were prepared in dimethyl sulfoxide (DMSO) and stored frozen. Test article and positive control concentrations were prepared fresh daily by diluting stock solutions into a HEPES-buffered physiological saline (HB-PS) solution (composition in mM): NaCl, 137; KCl, 4.0; CaCl2, 1.8; MgCl2, 1; HEPES, 10; Glucose, 10; pH adjusted to 7.4 with NaOH (refrigerated until use). […] Each test article formulation was sonicated (Model 2510/5510, Branson Ultrasonics, Danbury, CT) at room temperature for 20 minutes to facilitate dissolution. In preparation for the recording session, a glass-lined 96-well compound plate was loaded with the appropriate amounts of test and control solutions and placed in the plate well of the QPatch HT® (Sophion Bioscience A/S, Denmark), an automatic parallel patch clamp system. […]

TEAD2 [1] = target: T1, TEAD2 (Homo sapiens (Human), UniProt Q15562);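 note: TR-FRET competition assay with His-tagged TEAD protein and a biotinylated lipid pocket probe, compound pre-incubated 30 min or 4 h at room temperature, displacement lowers signal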
TEAD4 = TEAD4 (Homo sapiens (Human), UniProt Q15561); test: TR-FRET lipid pocket probe competition assay (Lipid HTRF), TEAD4; format: binding;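 note: His-tagged TEAD4 with biotinylated lipid-pocket probe, read by Europium anti-His and XL665 streptavidin, where probe displacement lowers the TR-FRET signal, IC50 from a four-parameter fit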
Procedure: (§1) His-tagged TEAD proteins are pre-incubated with TEAD project compounds for 30 minutes or 4 hours at room temperature. Biotinylated lipid pocket probes are then added to the TEAD/Compound mixture and incubated for 60 minutes at room temperature. The lipid pocket probe competes with the test compound for the TEAD lipid pocket until equilibrium is reached. After 60 minutes, Europium labelled anti-His (Perkin Elmer #AD0110) and XL665 labelled streptavidin (CIS Bio 610SAXAC) are added to the TEAD/test compound/lipid pocket mixture and incubated for 30 minutes or 4 hours. […] If a TEAD lipid pocket binder such as binds and displaces the lipid pocket probe, the disruption of the TEAD:probe interaction results in a decrease in TR-FRET signal. The potency of compounds as TEAD lipid pocket binders is determined by IC50 value generated using a non-linear 4 parameter curve fit.

TEAD1 = TEAD1 (Homo sapiens (Human), UniProt P28347); test: TR-FRET lipid pocket probe competition assay (Lipid HTRF), TEAD1; format: binding;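 note: His-tagged TEAD1 with biotinylated probe, detected via Europium anti-His and XL665 streptavidin, probe displacement lowers TR-FRET signal, IC50 from four-parameter nonlinear fit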
Procedure: as §1

TEAD2 [2] = target: T1, TEAD2; test: biochemical
[3] = 4 hours pre-incubation, read-out: Lipid HTRF TEAD3 IC50
[4] = 4 hours pre-incubation, read-out: Lipid HTRF TEAD4 IC50
[5] = 4 hours pre-incubation, read-out: Lipid HTRF TEAD1 IC50

T1 sequence (Q15562 whole entry, species assumed): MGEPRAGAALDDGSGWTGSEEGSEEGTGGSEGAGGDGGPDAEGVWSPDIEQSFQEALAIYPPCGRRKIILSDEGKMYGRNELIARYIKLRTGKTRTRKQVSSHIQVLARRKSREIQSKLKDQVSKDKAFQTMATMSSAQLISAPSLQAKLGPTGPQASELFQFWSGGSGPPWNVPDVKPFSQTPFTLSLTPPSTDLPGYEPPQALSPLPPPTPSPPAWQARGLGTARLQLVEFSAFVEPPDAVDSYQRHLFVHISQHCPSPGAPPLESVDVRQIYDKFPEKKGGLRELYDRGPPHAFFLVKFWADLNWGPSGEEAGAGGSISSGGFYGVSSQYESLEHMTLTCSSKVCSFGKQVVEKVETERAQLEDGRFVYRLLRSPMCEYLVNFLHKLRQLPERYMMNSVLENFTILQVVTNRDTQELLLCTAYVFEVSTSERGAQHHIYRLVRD
TEAD3, sequence (Q99594 whole entry, species assumed): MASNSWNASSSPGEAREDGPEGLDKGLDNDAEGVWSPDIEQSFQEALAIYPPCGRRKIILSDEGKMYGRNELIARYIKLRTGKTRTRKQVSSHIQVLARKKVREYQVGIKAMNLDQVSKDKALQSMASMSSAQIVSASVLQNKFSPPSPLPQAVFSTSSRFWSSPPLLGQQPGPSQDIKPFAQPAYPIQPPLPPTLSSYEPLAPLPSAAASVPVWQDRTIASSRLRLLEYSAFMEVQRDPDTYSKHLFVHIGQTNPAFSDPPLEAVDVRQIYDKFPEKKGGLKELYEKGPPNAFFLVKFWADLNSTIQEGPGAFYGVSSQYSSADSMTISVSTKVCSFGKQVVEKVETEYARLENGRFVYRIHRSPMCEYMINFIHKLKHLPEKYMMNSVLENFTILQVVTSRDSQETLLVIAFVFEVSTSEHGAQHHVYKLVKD
TEAD1, sequence (P28347 whole entry, species assumed): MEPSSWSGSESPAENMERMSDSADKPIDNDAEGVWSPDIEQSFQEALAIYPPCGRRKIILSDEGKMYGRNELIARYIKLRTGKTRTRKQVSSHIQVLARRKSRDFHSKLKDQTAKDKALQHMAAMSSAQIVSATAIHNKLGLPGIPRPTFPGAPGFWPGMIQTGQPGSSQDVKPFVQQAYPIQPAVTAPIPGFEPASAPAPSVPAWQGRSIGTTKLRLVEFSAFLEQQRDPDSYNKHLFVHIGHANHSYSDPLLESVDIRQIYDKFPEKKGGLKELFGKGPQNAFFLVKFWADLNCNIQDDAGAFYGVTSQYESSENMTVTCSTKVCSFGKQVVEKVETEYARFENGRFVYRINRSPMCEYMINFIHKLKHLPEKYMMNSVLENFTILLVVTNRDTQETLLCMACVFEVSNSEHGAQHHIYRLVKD
TEAD4, sequence (Q15561 whole entry, species assumed): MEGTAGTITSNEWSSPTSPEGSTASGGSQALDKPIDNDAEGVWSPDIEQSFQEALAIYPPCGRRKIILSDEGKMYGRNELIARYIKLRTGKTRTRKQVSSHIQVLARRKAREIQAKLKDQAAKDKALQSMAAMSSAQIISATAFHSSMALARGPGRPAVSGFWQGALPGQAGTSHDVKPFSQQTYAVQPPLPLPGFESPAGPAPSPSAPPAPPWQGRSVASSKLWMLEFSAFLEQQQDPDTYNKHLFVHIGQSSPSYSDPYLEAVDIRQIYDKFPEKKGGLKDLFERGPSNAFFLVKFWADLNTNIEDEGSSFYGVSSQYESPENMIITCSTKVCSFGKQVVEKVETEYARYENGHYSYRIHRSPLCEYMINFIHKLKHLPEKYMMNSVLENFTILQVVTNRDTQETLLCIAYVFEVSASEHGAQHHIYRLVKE
hNav1.5 sodium channels, sequence (Q14524 whole entry): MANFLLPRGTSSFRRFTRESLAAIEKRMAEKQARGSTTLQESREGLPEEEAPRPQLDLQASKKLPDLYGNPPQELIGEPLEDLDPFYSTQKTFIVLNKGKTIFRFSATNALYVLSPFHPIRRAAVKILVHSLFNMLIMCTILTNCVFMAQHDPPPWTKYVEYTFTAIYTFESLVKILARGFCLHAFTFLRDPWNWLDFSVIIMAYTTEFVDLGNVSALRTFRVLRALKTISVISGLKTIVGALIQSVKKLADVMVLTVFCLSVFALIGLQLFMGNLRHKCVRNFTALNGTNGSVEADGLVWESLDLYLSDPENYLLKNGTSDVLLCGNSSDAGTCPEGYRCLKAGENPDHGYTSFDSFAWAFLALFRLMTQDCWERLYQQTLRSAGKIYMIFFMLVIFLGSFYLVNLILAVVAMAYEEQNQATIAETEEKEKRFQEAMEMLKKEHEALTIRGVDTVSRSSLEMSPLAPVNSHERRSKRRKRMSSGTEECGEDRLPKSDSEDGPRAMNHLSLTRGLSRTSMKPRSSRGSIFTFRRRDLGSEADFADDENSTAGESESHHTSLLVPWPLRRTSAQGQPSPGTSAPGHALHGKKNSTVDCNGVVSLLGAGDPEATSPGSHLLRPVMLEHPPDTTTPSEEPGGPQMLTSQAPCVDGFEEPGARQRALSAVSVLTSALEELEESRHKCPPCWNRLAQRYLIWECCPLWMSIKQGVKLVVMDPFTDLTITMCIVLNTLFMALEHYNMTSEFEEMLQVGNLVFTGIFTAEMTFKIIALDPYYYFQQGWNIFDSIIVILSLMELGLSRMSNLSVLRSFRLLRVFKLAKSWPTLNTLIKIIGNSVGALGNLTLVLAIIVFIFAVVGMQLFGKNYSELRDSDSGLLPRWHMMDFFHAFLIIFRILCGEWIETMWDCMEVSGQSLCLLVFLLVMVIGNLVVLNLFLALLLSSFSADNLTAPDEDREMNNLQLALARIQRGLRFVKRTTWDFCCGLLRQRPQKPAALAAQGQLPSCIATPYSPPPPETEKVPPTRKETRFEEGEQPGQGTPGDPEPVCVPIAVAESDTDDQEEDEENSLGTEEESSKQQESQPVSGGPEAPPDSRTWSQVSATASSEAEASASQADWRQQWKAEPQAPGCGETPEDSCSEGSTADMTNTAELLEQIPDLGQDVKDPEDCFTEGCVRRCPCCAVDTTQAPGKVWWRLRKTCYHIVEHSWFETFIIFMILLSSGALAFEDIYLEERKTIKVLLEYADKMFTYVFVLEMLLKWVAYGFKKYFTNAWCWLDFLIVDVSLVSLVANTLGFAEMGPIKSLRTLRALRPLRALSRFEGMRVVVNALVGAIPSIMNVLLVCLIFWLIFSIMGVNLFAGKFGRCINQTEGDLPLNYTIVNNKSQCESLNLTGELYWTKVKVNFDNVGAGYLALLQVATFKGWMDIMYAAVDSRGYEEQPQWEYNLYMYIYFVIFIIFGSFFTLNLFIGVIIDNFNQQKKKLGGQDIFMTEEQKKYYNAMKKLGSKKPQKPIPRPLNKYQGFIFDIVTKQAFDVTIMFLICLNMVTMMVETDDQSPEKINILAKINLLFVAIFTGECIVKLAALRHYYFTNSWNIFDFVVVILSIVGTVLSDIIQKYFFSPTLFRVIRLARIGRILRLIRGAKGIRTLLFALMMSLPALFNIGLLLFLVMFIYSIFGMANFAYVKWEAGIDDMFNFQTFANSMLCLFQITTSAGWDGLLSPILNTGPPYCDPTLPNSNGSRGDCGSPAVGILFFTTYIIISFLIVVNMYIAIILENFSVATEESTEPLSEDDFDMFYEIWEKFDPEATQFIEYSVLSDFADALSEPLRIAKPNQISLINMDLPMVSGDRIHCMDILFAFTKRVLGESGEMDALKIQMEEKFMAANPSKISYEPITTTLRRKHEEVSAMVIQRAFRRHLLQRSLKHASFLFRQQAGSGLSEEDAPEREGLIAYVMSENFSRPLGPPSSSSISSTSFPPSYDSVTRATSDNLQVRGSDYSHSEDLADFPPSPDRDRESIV

SMILES	IC50 (TEAD3; [3])	NaV1.5 (Phasic) 10 uM concentration % inhibition (hNav1.5 sodium channels; 10 uM, mean % inhibition, n>=2 cells)	IC50 (TEAD2 [1])	IC50 (TEAD4; [4])	IC50 (TEAD1; [5])	IC50 (hNav1.5 sodium channels; 0.01-100 uM, read-out: NaV1.5 (Phasic) IC50)	IC50 (TEAD2 [2])	IC50 (TEAD3)	IC50 (TEAD4)	IC50 (TEAD1)
C=CC(=O)NCc1nn(-c2ccc(OC(F)(F)F)cc2)c2nccc([C@H](O)CO)c12 [Compound 17, N-[[4-[(1S)-1,2-dihydroxyethyl]-1-[4-(trifluoromethoxy)phenyl]pyrazolo[3,4-b]pyridin-3-yl]methyl]prop-2-enamide]	770 nM	32.1%	32 nM	20 nM	35 nM	–	–	–	–	–
C=C(F)C(=O)N1CC(c2nn(-c3ccc(OC(F)(F)F)cc3)c3nccc(CO)c23)C1 [Compound 20, 2-fluoro-1-[3-[4-(hydroxymethyl)-1-[4-(trifluoromethoxy)phenyl]pyrazolo[3,4-b]pyridin-3-yl]azetidin-1-yl]prop-2-en-1-one]	–	–	–	–	–	42100 nM	–	–	–	–
C=CC(=O)NCc1nn(-c2ccc(OC(F)(F)F)cc2)c2nccc(N3CCOCC3)c12 [Compound 77, N-((4-morpholino-1-(4-(trifluoromethoxy)phenyl)-1H-pyrazolo[3,4-b]pyridin-3-yl)methyl)acrylamide]	5700 nM	–	–	65 nM	93 nM	–	40 nM	–	–	–
[2H]C([2H])=C([2H])C(=O)NCc1nn(-c2ccc(OC(F)(F)F)cc2)c2nccc(CO)c12 [Compound 111, 2,3,3-Trideuterio-N-[[4-(hydroxymethyl)-1-[4-(trifluoromethoxy)phenyl]pyrazolo[3,4-b]pyridin-3-yl]methyl]prop-2-enamide]	290 nM	–	–	28 nM	16 nM	–	62 nM	–	–	–
[2H]C([2H])=C([2H])C(=O)NCc1nn(-c2ccc(OC(F)(F)F)cc2)c2nccc([C@H](O)CO)c12 [Compound 154, (S)-N-((4-(1,2-Dihydroxyethyl)-1-(4-(trifluoromethoxy)phenyl)-1H-pyrazolo[3,4-b]pyridin-3-yl)methyl)acrylamide-2,3,3-d3]	–	–	–	–	–	–	36 nM	1200 nM	22 nM	44 nM
